# Results as given in patent US20230364271A1, “METHODS AND COMPOSITIONS FOR INCREASING UPTAKE, INTERNALIZATION, AND/OR RETENTION OF SMALL MOLECULE LIGANDS” (CORNELL UNIVERSITY, priority 2020, published 2023).
# How the values were obtained:
# LNCaP cells = experiment: Retention of internalized Lu^177-labelled agent in LNCaP cells (Example 1); format: cell-based, human; settings: for efflux out of the cells after internalization: 2 human prostate cancer cell lines (LNCaP and CWR22Rv1); for cell-associated counts retained: LNCaP
# Method: (§1) LNCaP or CWR22Rv1 cells were plated into 12-well plates overnight. Lu^177-J591 (0.5 μci/ml/well) or Lu^177-PSMA-617 (0.5 μci/ml/well) was then added, and the cells were incubated for 6 hours at 37° C. to allow internalization. Duplicate wells were used for each time point. After 6 hours of incubation, the cells were washed once with RPMI-10% FBS. 0.6 ml of 1% TritonX-100 was added per well for 2 wells as 0 time point, and 1.5 ml of RPMI-10% FBS was added to the remaining wells. The cells were incubated at 37° C. for 1 to 6 days. On day 1, 2, 3, 5, and 6, the medium was removed and 0.6 ml of 1% TritonX-100 was added to each well. The lysate was collected from each well and all samples were counted at day 6. Results are shown in Table 1 below (in % of time 0 counts) and FIGS. 1A-1B.
# CWR22Rv1 cells = experiment: Retention of internalized Lu^177-labelled agent in CWR22Rv1 cells (Example 1); format: cell-based, human
# Method: as §1
# CWR22rv1 tumors = experiment: Tumor uptake of PSMA-617-Lu^177 in CWR22rv1 xenografts with cold antibody (Example 4); format: in vivo, BALB/c nude mice; settings: PSMA-617-Lu^177 300 μci IV with PBS, day 3 post-injection, average
# Method: CWR22rv1 cells (5×10^6 cells/200 μl matrigel/mouse) were injected into 40 BALB/c nude mice. After tumors were established and growing, all mice were injected intravenously (IV) via tail vein with PSMA-617-Lu^177 (300 μci/per mouse) on day 0. The treatment groups were as follows.
# All mice were euthanized 3 days after injection of PSMA-617-Lu^177. All tumors were harvested, weighed individually, and radioactivity counted.
compound,measurement,setting,value
O=C([O-])CN1CCN(CC(=O)[O-])CCN(CC(=O)NCC2CCC(C(=O)N[C@@H](Cc3ccc4ccccc4c3)C(=O)NCCCC[C@H](NC(=O)N[C@@H](CCC(=O)O)C(=O)O)C(=O)O)CC2)CCN(CC(=O)[O-])CC1.[177Lu+3] (stereo partly drawn) [Lu^177-PSMA-617],efflux out of the cells after internalization,LNCaP cells; listed as PSMA 617-Lu^177,rapidly effluxed back out of the cell soon after internalization
same,efflux out of the cells after internalization,LNCaP cells; listed as small molecule ligand,rapidly effluxed out of the cells
same,cell-associated counts retained,LNCaP cells; 0 time (after 6 h incubation),100.00 % of time 0 counts
same,cell-associated counts retained,LNCaP cells; Day 1,52.21 % of time 0 counts
same,cell-associated counts retained,LNCaP cells; Day 2,56.06 % of time 0 counts
same,cell-associated counts retained,LNCaP cells; Day 3,42.80 % of time 0 counts
same,cell-associated counts retained,LNCaP cells; Day 5,39.12 % of time 0 counts
same,cell-associated counts retained,LNCaP cells; Day 6,35.82 % of time 0 counts
same,cell-associated counts retained,"CWR22Rv1 cells; CWR22Rv1, 0 time (after 6 h incubation)",100.00 % of time 0 counts
same,cell-associated counts retained,"CWR22Rv1 cells; CWR22Rv1, Day 1",24.37 % of time 0 counts
same,cell-associated counts retained,"CWR22Rv1 cells; CWR22Rv1, Day 2",23.99 % of time 0 counts
same,cell-associated counts retained,"CWR22Rv1 cells; CWR22Rv1, Day 3",10.28 % of time 0 counts
same,cell-associated counts retained,"CWR22Rv1 cells; CWR22Rv1, Day 5",9.39 % of time 0 counts
same,cell-associated counts retained,"CWR22Rv1 cells; CWR22Rv1, Day 6",7.64 % of time 0 counts
same,tumor radioactivity,CWR22rv1 tumors,150 cpm/mg of tumor
